# Key:
# TrGar1 = target: T1, TrGar1 (Trichoderma reesei, UniProt Q3ZFI7); experiment: HPLC of L-galactonate in cultures of expressing yeast; assay type: cell-based; conditions: whole cells, sorbitol co-substrate, YlSdr supplying NADPH, pH 6.3, 30 °C
# T1 construct: gene gar1; synthetic ORF codon optimized for S. cerevisiae; expressed in yeast strains co-expressing GatA, Hxt13 and sorbitol dehydrogenase; whole-cell conversion
# T1 sequence (Q3ZFI7 1-309): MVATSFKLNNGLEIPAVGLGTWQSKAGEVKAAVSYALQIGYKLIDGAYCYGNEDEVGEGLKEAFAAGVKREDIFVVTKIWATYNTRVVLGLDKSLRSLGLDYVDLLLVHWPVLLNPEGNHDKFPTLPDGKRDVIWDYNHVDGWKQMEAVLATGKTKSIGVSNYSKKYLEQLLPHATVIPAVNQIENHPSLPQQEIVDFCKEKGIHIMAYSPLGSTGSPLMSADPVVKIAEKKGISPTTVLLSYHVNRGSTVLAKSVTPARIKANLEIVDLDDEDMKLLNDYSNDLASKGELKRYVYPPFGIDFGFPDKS
# AnGar1 [1] = target: T2, AnGar1 (Aspergillus niger, UniProt A2R7U3); experiment: NAD(P)H oxidation at […] nm, yeast crude extract; HPLC of L-galactonate in cultures; assay type: biochemical; conditions: 100 mM GalA, NADPH, 10 mM potassium phosphate pH 7.2
# T2 construct: gene An16g04770; synthetic ORF codon optimized for S. cerevisiae; expressed from plasmid in yeast CEN.PK2-1C, clear crude extract assayed against empty-vector control
# T2 sequence (A2R7U3 1-319): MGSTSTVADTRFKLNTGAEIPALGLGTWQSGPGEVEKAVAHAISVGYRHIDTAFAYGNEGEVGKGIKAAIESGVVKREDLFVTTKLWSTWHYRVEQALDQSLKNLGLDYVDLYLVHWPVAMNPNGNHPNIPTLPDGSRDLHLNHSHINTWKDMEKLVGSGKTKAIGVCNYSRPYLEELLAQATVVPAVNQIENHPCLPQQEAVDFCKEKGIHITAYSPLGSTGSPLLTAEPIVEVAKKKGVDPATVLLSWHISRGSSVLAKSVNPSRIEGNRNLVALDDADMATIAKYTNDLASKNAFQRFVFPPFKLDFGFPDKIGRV
# AnGaaA = target: T3, AnGaaA (Aspergillus niger, UniProt A8DRH9); experiment: HPLC of L-galactonate in cultures of expressing yeast; assay type: cell-based; conditions: whole cells, sorbitol co-substrate, YlSdr supplying NADPH, pH 6.3, 30 °C
# T3 construct: gene gaaA; synthetic ORF codon optimized for S. cerevisiae; expressed from multicopy plasmid in yeast; whole-cell conversion
# T3 sequence (A8DRH9 1-412): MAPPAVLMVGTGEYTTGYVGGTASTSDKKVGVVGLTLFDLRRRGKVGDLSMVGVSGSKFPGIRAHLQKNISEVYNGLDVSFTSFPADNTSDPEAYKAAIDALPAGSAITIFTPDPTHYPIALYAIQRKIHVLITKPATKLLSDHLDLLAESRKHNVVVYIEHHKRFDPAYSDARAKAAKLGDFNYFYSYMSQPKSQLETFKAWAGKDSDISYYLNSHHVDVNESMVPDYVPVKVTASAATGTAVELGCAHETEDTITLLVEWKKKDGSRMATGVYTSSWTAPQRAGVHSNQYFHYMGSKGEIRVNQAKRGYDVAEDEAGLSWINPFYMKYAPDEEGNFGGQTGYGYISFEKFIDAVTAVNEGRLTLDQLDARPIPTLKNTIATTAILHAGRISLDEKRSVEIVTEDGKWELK
# AnGar1 [2] = target: T2, AnGar1; experiment: NADPH oxidation at […] nm, yeast crude extract; assay type: biochemical; conditions: 100 mM GalA, 160 or 800 uM NADPH, 10 mM potassium phosphate pH 7.2
# AnGar1 [3] = target: T2, AnGar1; experiment: NADH oxidation at […] nm, yeast crude extract; assay type: biochemical; conditions: 160 or 800 uM NADH, 100 mM GalA, 10 mM potassium phosphate pH 7.2; competitive
compound,measurement,setting,value
O=C(O)[C@H]1OC(O)[C@H](O)[C@@H](O)[C@H]1O (stereo partly drawn) [D-galacturonic acid],HPLC of L-galactonate in cultures of expressing yeast,TrGar1,Wildtype TrGar1 and AnGar1 produce comparable amount of GalOA
same,"NAD(P)H oxidation at 340 nm, yeast crude extract; HPLC of L-galactonate in cultu",AnGar1 [1],"we demonstrate, for the first time, the activity of AnGar1 as a GalA reductase"
same,HPLC of L-galactonate in cultures of expressing yeast,AnGaaA,The lower titers observed with AnGaaA in comparison to TrGar1
NC(=O)C1=CN([C@@H]2O[C@H](COP(=O)(O)OP(=O)(O)OC[C@H]3O[C@@H](n4cnc5c(N)ncnc54)[C@H](OP(=O)(O)O)[C@@H]3O)[C@@H](O)[C@H]2O)C=CC1 [NADPH],"NADPH oxidation at 340 nm, yeast crude extract",AnGar1 [2],lower compared to those with NADPH of the wildtype enzyme
NC(=O)c1ccc[n+]([C@@H]2O[C@H](COP(=O)(O)OP(=O)(O)OC[C@H]3O[C@@H](n4cnc5c(N)ncnc54)[C@H](OP(=O)(O)O)[C@@H]3O)[C@@H](O)[C@H]2O)c1 [NADP],relative activity (% of activity without NADP),AnGar1 [3],"when NADP was added to competitively inhibit NADH binding, only the mutants were able"
